Data published in patent US9422238B2, “ICMT inhibitors” (National University of Singapore, priority 2012, dated 2016).
Like-named read-outs stand apart in the source and are kept apart here.

Legend:
[1] = Pharmacokinetic study, IP; format: in vivo, mice; conditions: for detection in plasma at late time points: IP; for half-life / AUC / Tmax / Cmax: female, mouse, plasma; for half-life: Balb/c
[2] = tested on: PC3 cells; test: Apoptosis by Annexin V-FITC / propidium iodide staining; format: cell-based, human; conditions: PC3, 48 h; for % Apoptotic / % Necrotic / % Normal: one analysis only; for induction of apoptosis: one determination, preliminary
Experimental: The Annexing® V-FITC Apoptosis Detection Kit (BD Biosciences, Franklin Lakes, N.J.) was used PC3 cells were seeded at 65 000 cells per well in 6-well plates with DMEM (high glucose, supplemented with 10% FBS) as media. Plates were incubated (24 h, 37° C., 5% CO2) for cells to attach and then treated with test compound (prepared in same media but with 5% FBS) for 48 h. Final volume of DMSO per well was 0.05% v/v. After the specified time, the supernatant in the well was collected, the cell pellet was trypsinized, combined with the supernatant and pelleted by centrifugation (150 g, 5 min). The pellet was rinsed twice with cold 1×PBS and suspended in the proprietary binding buffer (1×) to give a concentration of 10^6 cells per mL. An aliquot (100 μL) of the suspension containing 10^5 cells was transferred to the FACS tube (5 mL) to which was added Annexin® V-FITC solution (5 μL) and propidium iodide (PI) solution (5 μL). The solution was gently vortexed, incubated in the dark for 15 min at room temperature (25° C.), after which was added 400 μL of the binding buffer (1×). The sample was analyzed immediately or no later than 1 h, in which case it should be kept in ice and protected from light. Analysis was carried out on a FCS500 flow cytometer (Beckman Coulter, CA) using the FlowJo® software (http: http://www.flowjo.com/). Controls comprised untreated cells, cells exposed to Annexin® V-FITC only, and cells exposed to PI only. Each test compound was evaluated at 4 concentrations. Only 1 determination was made per concentration.

[3] = tested on: HepG2 cells; test: Western blot of autophagy marker LC3-II; format: cell-based, human; conditions: HepG2, 24 h and 48 h
Experimental: (§1) MDA MB231, PC3 and HepG2 cells were seeded at 65 000 cells/mL per well in […] with DMEM (high glucose, supplemented with 10% FBS, 50 μg/mL penicillin, 50 μg/mL streptomycin) as media. Plates were incubated (24 h, 37° C., 5% CO2) for cells to attach and then treated with test compound (prepared in same media but with 5% FBS) for 24 h or 48 h. Final volume of DMSO per well was kept at 0.05% v/v. After the specified time, the supernatant was removed from the well by pipetting, the cell pellet was trypsinized, and pelleted by centrifugation (150 g, 5 min) and stored in −20° C. Samples were thawed and cells lysed by adding RIPA (radioimmunoprecipitation assay lysis buffer, Thermo Scientific, Rockland, Ill.) (50 μL), kept in ice for 30 min and sonicated for 1 min in an ice bath. Samples were centrifuged (13 000 g, 5 min, 4° C.) to remove cell debris. The supernatant was stored as aliquots at −80° C. and used when required. At the time of use, samples were thawed and protein content determined using the BCA® Protein Assay reagent (Thermo Scientific, Rockland, Ill.). The volume of the lysate was adjusted with deionized water to normalize protein content to 10-20 μg per mL. To this was added Laemmli buffer (4×) and heated to 100° C. for 5 minutes to denature the protein. The samples were resolved by 12% SDS-PAGE gel electrophoresis at 100V for 90 min. The resolved proteins were transferred to polyvinylidene difluoride (PVDF) membranes (Bio-Rad, Singapore) using transfer buffer at 100V for 120 min. Membranes were then treated with 5% blocking buffer (5% non-fat milk and 0.1% Tween-20 in PBS) and probed with the specific antibody (GAPDH, LC3) by incubating the membranes in blocking buffer containing the antibody at 4° C. overnight. After washing the membranes in PBS containing 0.1% Tween 20 (PBST), the membranes were probed with secondary antibodies (horseradish peroxidase anti mouse IgG, Pierce, USA) in blocking buffer at room temperature for 1 h. They were then washed with PBST and developed using an enhanced chemiluminescence procedure (Amersham ECL Advanced Western Blotting Detection Kit, GE, Healthcare, UK). Immunoblots were viewed using the ImageQuant® RT-ECL imager (GE Healthcare) and the image captured with the ImageQuant® TL software. Antibodies were obtained from the following sources: GAPDH (Cell signaling technology, USA), LC3 (Abgent, USA). Test compound was evaluated at 3 concentrations with 2 repeats for each concentration.

[4] = tested on: PC3 cells; test: Western blot of autophagy marker LC3-II; format: cell-based, human; conditions: PC3, 24 h and 48 h
Experimental: as §1

[5] = tested on: MDA MB 231 cells; test: Western blot of autophagy marker LC3-II; format: cell-based, human; conditions: MDA MB 231, 24 h and 48 h
Experimental: as §1

[6] = Balb/c mice, 20 mg/kg IP, 20 mg/kg

## CCCCCCCCn1cc(CN(CC)CC)c2cc(-c3cnc(N)nc3)ccc21 [Compound 8-12, 5-(3-Diethylaminomethyl-1-octyl-1H-indol-5-yl)-pyrimidin-2-ylamine]
[1]; 10 mg/kg or 25 mg/kg IP
  time to peak concentration in plasma: within an hour
[1]; Balb/c mice, 10 mg/kg IP
  Clearance: 400 mL/h/kg
  AUC: 24.6 µg·h/mL
  Tmax: 15 min
  Cmax: 17.9 µg/mL
[1]; Balb/c mice, 25 mg/kg IP
  Clearance: 604 mL/h/kg
  Volume of Distribution: 1185 mL/kg
  AUC: 40.8 µg·h/mL
  Tmax: 45 min
  Cmax: 17.4 µg/mL
[1]; Balb/c mice
  detection in plasma at late time points: not detected after 24 h and 48 h
[1]; intraperitoneal, summary, treated mice, read-out: half life
  half-life: < 60 min
[1]; ip, 10 mg/kg or 25 mg/kg IP, estimated, read-out: half life
  half-life: < 180 min
[1]; ip, 10 mg/kg, Balb/c mice, 10 mg/kg IP, read-out: T1/2 (converted)
  half-life: 75 min
[1]; ip, 25 mg/kg, Balb/c mice, 25 mg/kg IP, read-out: T1/2 (converted)
  half-life: 81.6 min
[2]; 0.4 μM
  % Apoptotic: 1.45%
  % Necrotic: 4.95%
  % Normal: 93.6%
[2]; 0.8 μM
  % Apoptotic: 1.31%
  % Necrotic: 6.85%
  % Normal: 91.8%
[2]; 1.0 μM
  % Apoptotic: 0.71%
  % Necrotic: 8.84%
  % Normal: 90.4%
[2]; 1.2 μM
  % Apoptotic: 0.93%
  % Necrotic: 7.43%
  % Normal: 91.6%
[2]
  induction of apoptosis: Induction of apoptosis was also not observed
[3]
  LC3-II content (immunoblot): LC3-II bands were detected in HepG2 cells treated only with 0.5 μM but not 0.25 μM
[4]
  LC3-II content (immunoblot): increased the content of LC3-II
[5]
  LC3-II content (immunoblot): increased the content of LC3-II

## CCCCCCCCn1cc(CC(N)=O)c2cc(-c3cccc(C)c3)ccc21 [Cysmethynil, 2-[5-(3-methylphenyl)-1-octyl-1H-indolo-3-yl]acetamide, reference compound]
[1]; Balb/c mice, 20 mg/kg IP
  Clearance: 23.7 mL/h/kg
  AUC: 843 µg·h/mL
  Tmax: 45 min
  Cmax: 210 µg/mL
[1]; [6]
  T1/2: 1.55 h
  Volume of Distribution: 52.9 mL/kg
[1]; Balb/c mice, 20 mg/kg IP, listed as cysmethynil, 20 mg/kg
  Volume of Distribution: 53 mL/kg
[1]; Balb/c mice, 100 mg/kg IP
  Clearance: 13 mL/h/kg
  Volume of Distribution: 79.9 mL/kg
  AUC: 7690 µg·h/mL
  Tmax: 45 min
  Cmax: 1160 µg/mL
[1]; Balb/c mice
  detection in plasma at late time points: could not be detected in plasma beyond this time
[1]; ip, 20 mg/kg, Balb/c mice, 20 mg/kg IP, read-out: T1/2 (converted)
  half-life: 96 min
[1]; ip, 100 mg/kg, Balb/c mice, 100 mg/kg IP, read-out: T1/2 (converted)
  half-life: 258 min
[2]; 12.5 μM
  % Apoptotic: 0.92%
  % Necrotic: 6.94%
  % Normal: 92.1%
[2]; 17.5 μM
  % Apoptotic: 1.96%
  % Necrotic: 8.33%
  % Normal: 89.7%
[2]; 20.0 μM
  % Apoptotic: 1.23%
  % Necrotic: 8.06%
  % Normal: 90.7%
[2]; 22.5 μM
  % Apoptotic: 1.21%
  % Normal: 89.6%
[2]
  induction of apoptosis: not found to induce apoptosis
[3]
  LC3-II content (immunoblot): LC3II accumulation was evident after 48 hours but not 24 h
[4]
  LC3-II content (immunoblot): negligible LC3II were observed
[5]
  LC3-II content (immunoblot): LC3-II accumulation was evident in MDA MB 231 cells treated with cysmethynil at 20 and 22.5 μM, but not at 17.5 μM
